Here are results for 19 molecules from ChEMBL document CHEMBL1909540, “Synthesis and antimycobacterial evaluation of 3a,4-dihydro-3H-indeno [1,2-c] pyrazole-2-carboxamide analogues” (Eur J Med Chem, 2011).

Values after ≈ are worked out from the molar mass of the structure shown.

The test system of one data set is Mycobacterium tuberculosis. The data set can be described thus: Antitubercular activity against multidrug-resistant Mycobacterium tuberculosis by two fold serial dilution method. The data set is classed as functional.
`COc1cc2c(cc1OC)C1=NN(C(=O)Nc3ccc([N+](=O)[O-])cc3)C(c3ccncc3)C1C2` (stereo not given): the MIC was over 13.6 µM.
`COc1cc2c(cc1OC)C1=NN(C(=O)Nc3ccc(Cl)cc3)C(c3ccncc3)C1C2` (stereo not given) yielded an MIC of 10 µM (≈ 4.49 µg/mL).
Still for that read-out and setting: next, `COc1cc2c(cc1OC)C1=NN(C(=O)Nc3ccc(Cl)cc3)C(c3ccccc3Cl)C1C2` (stereo not given): over 13.9 µM.
Still for that read-out and setting: to `COc1cc2c(cc1OC)C1=NN(C(=O)Nc3ccc(Cl)cc3)C(c3ccc(F)cc3)C1C2` (stereo not given) belongs 3.32 µM (≈ 1.55 µg/mL).
On the same count and under the same terms, next, `COc1ccc(C2C3Cc4cc(OC)c(OC)cc4C3=NN2C(=O)Nc2ccc(Cl)cc2)cc1OC` (stereo not given): over 9.8 µM; `COc1cc2c(cc1OC)C1=NN(C(=O)Nc3ccc(Cl)cc3)C(c3ccccc3)C1C2` (stereo not given): 10.5 µM (≈ 4.69 µg/mL).
Molecule `COc1ccc(C2C3Cc4cc(OC)c(OC)cc4C3=NN2C(=O)Nc2ccc(Cl)cc2)cc1` (stereo not given) showed an MIC of over 10.5 µM.
For `COc1cc2c(cc1OC)C1=NN(C(=O)Nc3ccc([N+](=O)[O-])cc3)C(c3ccccc3Cl)C1C2` (stereo not given), the MIC was over 12.7 µM.
Molecule `COc1cc2c(cc1OC)C1=NN(C(=O)Nc3ccc([N+](=O)[O-])cc3)C(c3ccc(F)cc3)C1C2` (stereo not given) gave an MIC of 6.32 µM (≈ 3.01 µg/mL).
`COc1ccc(C2C3Cc4cc(OC)c(OC)cc4C3=NN2C(=O)Nc2ccc([N+](=O)[O-])cc2)cc1OC` (stereo not given): the minimal inhibitory concentration (MIC) is over 12.1 µM.
Consider `COc1cc2c(cc1OC)C1=NN(C(=O)Nc3ccc([N+](=O)[O-])cc3)C(c3ccccc3)C1C2` (stereo not given), for which inhibition of growth (MIC) required 13.6 µM (≈ 6.24 µg/mL).
Same read-out and setting: next, `COc1ccc(C2C3Cc4cc(OC)c(OC)cc4C3=NN2C(=O)Nc2ccc([N+](=O)[O-])cc2)cc1` (stereo not given): over 12.8 µM.
The molecule `COc1cc2c(cc1OC)C1=NN(C(N)=O)C(c3ccncc3)C1C2` (stereo not given) had an MIC of over 11.8 µM.
Molecule `COc1cc2c(cc1OC)C1=NN(C(N)=O)C(c3ccccc3Cl)C1C2` (stereo not given) displayed an MIC of over 10.8 µM.
The same measure, in the same setting: next, `COc1cc2c(cc1OC)C1=NN(C(N)=O)C(c3ccc(F)cc3)C1C2` (stereo not given): 6.62 µM (≈ 2.35 µg/mL); `COc1ccc(C2C3Cc4cc(OC)c(OC)cc4C3=NN2C(N)=O)cc1OC` (stereo not given): over 10.1 µM; `COc1cc2c(cc1OC)C1=NN(C(N)=O)C(c3ccccc3)C1C2` (stereo not given): over 11.8 µM.
The same measure, in the same setting: to `COc1ccc(C2C3Cc4cc(OC)c(OC)cc4C3=NN2C(N)=O)cc1` (stereo not given) belongs over 10.9 µM; to `NNC(=O)c1ccncc1` [ISONIAZID], 45.6 µM (≈ 6.25 µg/mL).

System in the next data set: not listed separately
The data set can be described thus: Safety index, ratio of IC50 for african green monkey Vero cells to MIC for multidrug-resistant Mycobacterium tuberculosis. The data set is classed as toxicity, cell-based.
`COc1cc2c(cc1OC)C1=NN(C(=O)Nc3ccc(Cl)cc3)C(c3ccc(F)cc3)C1C2` (stereo not given): the selectivity ratio is 40.3.
